{"source": "paper PMC5063960", "about": "“N-acetylglucosamine sensing by a GCN5-related N-acetyltransferase induces transcription via chromatin histone acetylation in fungi” (Nature Communications, 2016)", "biological_target": "T1, Ngs1 (Candida albicans, UniProt A0A1D8PRM0)", "T1 construct": "full length (963 aa), N-terminal 3xFLAG tag, expressed from NGS1 promoter in C. albicans ngs1 mutant; protein extract", "T1 sequence (A0A1D8PRM0 entry or part of it)": "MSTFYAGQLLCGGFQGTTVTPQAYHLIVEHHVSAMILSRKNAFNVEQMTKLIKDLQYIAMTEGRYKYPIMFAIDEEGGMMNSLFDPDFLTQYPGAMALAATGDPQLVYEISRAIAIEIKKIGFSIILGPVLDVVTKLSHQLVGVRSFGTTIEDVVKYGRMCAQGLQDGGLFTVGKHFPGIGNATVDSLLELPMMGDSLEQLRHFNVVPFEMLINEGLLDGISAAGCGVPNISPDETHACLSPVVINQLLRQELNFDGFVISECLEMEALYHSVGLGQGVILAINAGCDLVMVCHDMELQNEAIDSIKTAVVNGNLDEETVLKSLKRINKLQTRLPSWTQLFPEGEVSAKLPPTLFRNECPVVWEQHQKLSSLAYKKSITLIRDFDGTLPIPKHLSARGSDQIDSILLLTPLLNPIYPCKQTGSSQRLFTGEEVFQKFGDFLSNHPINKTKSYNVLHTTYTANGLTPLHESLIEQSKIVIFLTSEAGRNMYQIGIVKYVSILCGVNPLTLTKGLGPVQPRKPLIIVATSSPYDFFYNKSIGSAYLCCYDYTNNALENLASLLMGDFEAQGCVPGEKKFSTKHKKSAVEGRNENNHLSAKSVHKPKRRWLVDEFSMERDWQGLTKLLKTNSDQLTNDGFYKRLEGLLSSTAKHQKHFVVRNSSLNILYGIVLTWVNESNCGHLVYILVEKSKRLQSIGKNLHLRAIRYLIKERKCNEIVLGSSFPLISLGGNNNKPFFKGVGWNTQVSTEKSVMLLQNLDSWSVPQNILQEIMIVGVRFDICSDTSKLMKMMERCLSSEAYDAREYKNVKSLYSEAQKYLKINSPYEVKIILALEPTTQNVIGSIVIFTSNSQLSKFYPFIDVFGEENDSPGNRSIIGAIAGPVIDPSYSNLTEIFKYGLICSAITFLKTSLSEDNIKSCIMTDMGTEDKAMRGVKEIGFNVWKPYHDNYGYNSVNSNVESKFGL", "assay": "GlcNAc-agarose pull-down from protein extract, competition with free GlcNAc, anti-FLAG Western blot", "type": "binding", "conditions": "100 mM free GlcNAc as competitor; 4 °C overnight; GH3 homology domain site", "data": [{"smiles": "CC(=O)N[C@H]1C(O)O[C@H](CO)[C@@H](O)[C@@H]1O", "note": "(stereo partly shown) [GlcNAc]", "values": [{"measurement": "GlcNAc-agarose pull-down from protein extract, competition with free GlcNAc, ant", "value": "The binding of GlcNAc-agarose with FLAG-Ngs1 was greatly reduced when free GlcNAc was added"}]}]}
